Assay results as given in patent US7388006B2, “Non-steroidal progesting” (Bayer Schering Pharma AG, priority 2002, dated 2008).

Tests used:
[1] = test system: uterine growth in ovariectomized estradiol-treated rats; assay: Antiuterotropic activity in the rat (uterine weight, epithelial height); format: in vivo; conditions: for Functional antiestrogenic effect (uterine weight gain, epithelial cell height): 3 days
From the text: Compounds with estrogenic activity induce uterine growth, resulting in an increase in uterine weight. They also induce a characteristic change of the appearance of the endometrial epithelium as indicated by an increase in epithelial height. PR modulators counteract estrogenic activity by inhibiting uterine weight gain and epithelial cell proliferation. This effect is sometimes referred to as “functional antiestrogenic” effect.
To test for antiuterotropic activity of the most preferred progestin according to the present invention, i.e., compound ((+)-1), ovariectormized rats are treated for 3 days with 0.3 μg/kg/d estradiol (E2) and in addition with increasing doses of ((+)-1) (cf. FIG. 4). Each test group shown in FIG. 4 consists of 10 rats, with the exception of one group (cf. FIG. 4, bottom diagram, 150 μg/kg of ((+)-1)), indicated by “#”), which consists of nine rats.
Changes in uterine weight, luminal epithelial height and the status of cell proliferation and keratinization of the vaginal smear servs as parameters for estrogenic activity. In combination with ((+)-1), decreases in estrogen-stimulated uterine weight gain and luminal epithelial height are parameters for antiestrogenic activity (cf. FIG. 4).
For the reference group (estradiol (E2)-treated), stimulation of the uterine weight and the luminal epithelial height in comparison to the vehicle control was calculated as follows: […]
In the antiestrogen assay, inhibition of uterine weight or luminal epithelial height in comparison to the effect seen with the reference compound (estradiol) was calculated as follows: […]
For statistical analysis, the 95% confidence interval was calculated using a software which was developed by the Biostatistical Department of Schering AG. The asterisks indicate a significant difference (p<0.05).

[2] = target: T1, estrogen receptor-α (ERα) (Homo sapiens, UniProt P03372); assay: Binding to the estrogen receptor-α in vitro
T1 sequence (P03372 1-595): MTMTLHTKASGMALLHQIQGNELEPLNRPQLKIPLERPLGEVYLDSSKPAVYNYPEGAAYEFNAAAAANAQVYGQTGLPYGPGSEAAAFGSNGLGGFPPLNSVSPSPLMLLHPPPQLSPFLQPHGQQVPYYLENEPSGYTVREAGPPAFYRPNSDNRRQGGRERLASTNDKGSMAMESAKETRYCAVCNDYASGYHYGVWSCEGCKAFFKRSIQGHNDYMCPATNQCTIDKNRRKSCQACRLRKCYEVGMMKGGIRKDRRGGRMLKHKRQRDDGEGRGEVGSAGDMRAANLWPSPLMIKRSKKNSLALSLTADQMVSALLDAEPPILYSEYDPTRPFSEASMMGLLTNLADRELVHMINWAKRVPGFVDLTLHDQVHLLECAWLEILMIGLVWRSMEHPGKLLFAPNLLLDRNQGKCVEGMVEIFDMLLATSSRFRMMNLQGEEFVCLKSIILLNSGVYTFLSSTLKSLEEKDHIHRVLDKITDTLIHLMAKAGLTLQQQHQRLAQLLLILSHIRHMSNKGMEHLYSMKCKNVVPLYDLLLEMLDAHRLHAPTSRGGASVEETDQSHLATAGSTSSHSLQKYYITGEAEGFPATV

PR-A = format: cell-based
Description: The method for screening for PR isoform-specific progestins according to the present invention is carried out with first and second SK-N-MC cells stably transfected with a plasmid expressing the HPR-A (first cells) or the hPR-B (second cells) and the LUC reporter gene linked to the hormonally responsive MTV promoter.
The cells are cultured in Minimum Essential Medium with Earl's Salts (S-MEM, without L-glutamine; Gibco BRL, no. 21090-022), supplemented with 10% fetal calf serum (FCS), penicillin 100U/streptomycin 100 μg/ml (Biochrom, no. A2213), L-glutamine 4 mmol/l (Gibco BRL, no. 25030-024), sodium pyruvate 1 mmol/l (Biochrom, no. L0473) and 1×non-essential amino acids (Biochrom, no. K0293) at a temperature of 37° C. and in an atmosphere of 5% carbon dioxide.
For the transcription assay, the cells are seeded onto 96-well dishes (2×10^4 cells/dish) and cultured in a medium as described above, with the exception that the FCS is replaced by a 3% charcoal stripped FCS. 48 hours later, cells are contacted with prediluted test compounds. For determination of agonistic activity, cells are cultured in the presence of 6 increasing concentrations (10^−6 to 10^−11 mol/l) of test progestins. As a positive control for reporter gene induction cells are treated with 10^−6 to 10^−11 mol/l R5020 (promegestone). As a negative control for reporter gene induction, cells are cultured in 1% ethanol.
After incubation with test progestins for 24 hours, the medium is removed and cells are lysed with 20 μl of lysis buffer (Luciferase Assay System E 153A; Promega) and under agitation of the plate for 101 min. After addition of 30 μl of luciferase reagent (Luciferase Assay System E 151A+152A; Promega) within 30 seconds per plate, the activity of the luciferase reporter gene product is determined in the cell lysates by means of a Microlite ML 3000 microtiter plate luminometer (Dynatech) in cycle mode.
Evaluation of the response gives the efficacy [%], and evaluation of the EC50s values gives the potency [nM]. Calculation of the agonistic activity is conducted as follows:
The LUC activity [%] for the measured data points is calculated as follows:
[formula] wherein CI=100% stimulation (R5020, 10^−7 mol/l) and CO=0% stimulation (ethanol, 1%).
Thus, the efficacy [%] is calculated according to: […]
The potency [nM], i.e. the EC50, is determined graphically.

## O=C1OCc2cc(NC(=O)C(O)(CC3(c4cc(C(F)(F)F)ccc4F)CC3)C(F)(F)F)ccc21 (single isomer, unassigned; (+)) [((+)-1), (+)-5-{2-hydroxy-3-[1-(2-fluoro-5-trifluoromethylphenyl)-cyclopropyl]-2-trifluoromethyl-propionylamino}-phthalide]
[1]; 5 μg/kg/d with estradiol
  Functional antiestrogenic effect (uterine weight gain, epithelial cell height): submaximum effect
[1]; 15 μg/kg/d with estradiol
  Functional antiestrogenic effect (uterine weight gain, epithelial cell height): Maximum effect
[1]; in combination with estradiol, FIG. 4
  Functional antiestrogenic effect, in words: strong functional antiestrogenic effect
[2]
  Affinity for the estrogen receptor-α (ERα): negligible affinity
PR-A; PR-A efficacy minus PR-B efficacy
  Δ agonism efficacies (A-B): 64
PR-A; PR-A versus PR-B
  PR isoform selectivity in words: selective PR-A agonist
